Data published in patent US4681890A, “3,4-dihydrobenzopyran compounds and pharmaceutical composition containing the same” (Kuraray Co., Ltd., priority 1984, dated 1987).

What was measured:
[1] = test system: Total cholesterol in serum (hypercholesterolemic mice); assay: Blood cholesterol lowering activity (total serum cholesterol in mice given a lipid emulsion); type: in vivo, dd-Male mice; conditions: for Serum cholesterol value: p.o., 17 hours after second administration
Description: dd-Male mice weighing about 25 g (one group: 10 mice) were allowed to fast for 12 hours, and thereto was orally administered a lipid emulsion (olive oil 32.7%, cholesterol 2.5%, sodium cholate 1.8%, sucrose 41.9%, and water 21.1%) in a dose of 25.5 ml/kg. A suspension of a test compound in gum arabic was orally administered to the mice twice, i.e. immediately after and […] after the administration of the lipid emulsion. 17 hours after the second administration of test compound, blood was collected from descending abdominal aorta under ether anesthesia. Total cholesterol in serum was measured by COD-p-chlorophenol colorimetry. As a reference compound, there was used Nicomol (chemical name: 2,2,6,6-tetrakis(nicotinoyloxymethyl)cyclohexanol) which is commercially available anticholesteremic agent.
Serum cholesterol values at 17 hours after the second administration of test compound were compared with the serum cholesterol values in normal mice and hypercholesterolemic mice.

Acute toxicity (LD50) = conditions: mouse, in vivo; mice, oral administration
Description: The compounds of this invention show a low toxicity. For instance, Compound 1 and Compound 2 have LD50 of more than 5,000 mg/kg in mice (by oral administration).

[2] = test system: blood cholesterol concentration; conditions: known agents, background; cited from earlier work
[3] = test system: ornithine carbamyl transferase (OCT) in serum, ethanol-administered mice; assay: Activity against alcoholic hepatic disease (serum OCT activity); type: in vivo, dd-Male mice
Description: dd-Male mice (4 weeks age, weighing about 15 g, one group: 10 mice) were fed with a hyperlipid feed [composition: cholesterol 1.0%, sodium cholate 0.5%, butter 5.0%, sucrose 30.0%, casein 10.0%, and M powder feed (manufactured by Oriental Yeast Co., Ltd., Japan) 53.5%] for 4 weeks. During the feeding, a suspension of a test compound in gum arabic and a 20% aqueous ethanol (15 ml/kg) were orally administered twice a day (morning and evening). After 4 weeks, mice were subjected to laparotomy under ether anesthesia, and blood was collected from the descending abdominal aorta. The blood thus collected was centrifuged at 3,000 r.p.m. for 15 minutes, and the enzymatic activity of ornithine carbamyl transferase (OCT) was measured with OCT-Test Wako (manufactured by Wako Pure Chemical Industries, Ltd., Japan).
The OCT activity in serum of mice which were administered test compounds was compared with the OCT activity in serum of normal mice and in control mice which were administered only 20% aqueous ethanol.

[4] = test system: glutamic oxaloacetic transaminase (GOT) in serum, CCl4-administered mice; assay: Activity against carbon tetrachloride-induced hepatic disease (serum GOT); type: in vivo, dd male mice
Description: (§1) To dd male mice weighing 18-20 g (one group: 10 mice) was orally administered a suspension of a test compound in gum arabic twice or three times per day. On the third day, 1% carbon tetrachloride (v/v % in olive oil) was subcutaneously injected at the back of the mice in a dose of 2 ml/kg one hour after the last administration of test compound. 19 hours after the injection of CCl4, a suspendion of a test compound in gum arabic was orally administerd. After one hour, the mice were subjected to laparotomy under ether anesthesia and blood was collected from the descending abdominal aorta. The blood thus collected was centrifuged at 3,000 r.p.m. for 15 minutes. The enzymatic activities of glutamic oxaloacetic transaminase (GOT) and glutamic pyruvic transaminase (GPT) in serum were measured with S.TA-Test Wako (manufactured by Wako Pure Chemical Industries, Ltd., Japan).
(§2) The activities of GOT and GPT in serum of the mice which were administered test compounds were compared with the GOT and GPT activities in serum of normal mice and 1% CCl4 (v/v % in olive oil)-administered mice.

[5] = test system: glutamic pyruvic transaminase (GPT) in serum, CCl4-administered mice; assay: Activity against carbon tetrachloride-induced hepatic disease (serum GPT); type: in vivo, dd male mice
Description: as §1, §2

Cc1c(C)c2c(c(C)c1OC(=O)c1cccnc1)CCC(C)(CC(COC(=O)c1cccnc1)OC(=O)c1cccnc1)O2 (centres unmarked) [Compound 7]
Serum cholesterol value ([1]; Table 3, 571 mg/kg, normal 109.1 ± 9.3, hypercholesterolemic 164.0 ± 12.8): 143.6 ± 10.8 mg/dL

Cc1c(C)c2c(c(C)c1O)CCC(C)(CCOC(=O)c1cccnc1)O2 (centres unmarked) [Compound 1, 3,4-dihydro-2-nicotinoyloxyethyl-2,5,7,8-tetramethyl-2H-benzopyran-6-ol]
Serum cholesterol value ([1]; Table 1, 355 mg/kg, normal 98.6 ± 10.8, hypercholesterolemic 172.2 ± 8.6): 130.7 ± 11.3 mg/dL
LD50 (Acute toxicity (LD50)): > 5000 mg/kg

Cc1c(C)c2c(c(C)c1OC(=O)c1cccnc1)CCC(C)(CCCOC(=O)c1cccnc1)O2 (centres unmarked) [Compound 6, 3,4-dihydro-2-nicotinoyloxypropyl-2,5,7,8-tetramethyl-2H-benzopyran-6-yl nicotinate]
Serum cholesterol value ([1]; Table 1, 474 mg/kg, normal 98.6 ± 10.8, hypercholesterolemic 172.2 ± 8.6): 123.8 ± 13.8 mg/dL

Cc1c(C)c2c(c(C)c1O)CCC(C)(COC(=O)c1cccnc1)O2 (centres unmarked) [Compound 4]
Serum cholesterol value ([1]; Table 1, 341 mg/kg, normal 98.6 ± 10.8, hypercholesterolemic 172.2 ± 8.6): 159.4 ± 13.4 mg/dL

O=C(OCC1(COC(=O)c2cccnc2)CCCC(COC(=O)c2cccnc2)(COC(=O)c2cccnc2)C1O)c1cccnc1 [Nicomol, 2,2,6,6-tetrakis(nicotinoyloxymethyl)cyclohexanol, reference compound]
Serum cholesterol value ([1]; Table 1, 640 mg/kg, normal 98.6 ± 10.8, hypercholesterolemic 172.2 ± 8.6): 146.1 ± 14.7 mg/dL
Serum cholesterol value ([1]; Table 2, 640 mg/kg, normal 101.0 ± 5.8, hypercholesterolemic 194.3 ± 9.5): 139.4 ± 4.4 mg/dL
Serum cholesterol value ([1]; Table 3, 640 mg/kg, normal 109.1 ± 9.3, hypercholesterolemic 164.0 ± 12.8): 138.3 ± 12.5 mg/dL
Serum cholesterol value ([1]; Table 4, 640 mg/kg, normal 111.3 ± 8.6, hypercholesterolemic 165.0 ± 13.4): 142.7 ± 11.5 mg/dL
blood cholesterol concentration lowering [2]: not necessarily sufficient for lowering blood cholesterol

O=C(O)c1cccnc1 [nicotinic acid]
blood cholesterol concentration lowering [2]: temporarily lowered, but the lowered concentration is not sustained

O=C(OCC(COC(=O)c1cccnc1)(COC(=O)c1cccnc1)COC(=O)c1cccnc1)c1cccnc1 [pentaerythritol tetranicotinate]
blood cholesterol concentration lowering [2]: not necessarily sufficient for lowering blood cholesterol

Cc1c(C)c2c(c(C)c1OC(=O)c1cccnc1)CCC(C)(CCOC(=O)c1cccnc1)O2 (centres unmarked) [Compound 2, 3,4-dihydro-2-nicotinoyloxyethyl-2,5,7,8-tetramethyl-2H-benzopyran-6-yl nicotinate]
Serum cholesterol value ([1]; Table 2, 300 mg/kg, normal 101.0 ± 5.8, hypercholesterolemic 194.3 ± 9.5): 139.6 ± 9.3 mg/dL
OCT activity unit (mean ± S.E.) ([3]; Table 5, 300 mg/kg, p.o., twice a day, 4 weeks, normal 5.1 ± 3.2, ethanol-administered 122.5 ± 17.0): 79.6 ± 12.2 unit
GOT activity (average) ([4]; Table 6, 300 mg/kg, p.o., normal 87.9 ± 5.3, CCl4-administered 914.3 ± 195.1): 582.9 ± 59.8
GPT activity (average) ([5]; Table 6, 300 mg/kg, p.o., normal 74.0 ± 16.3, CCl4-administered 1251.4 ± 285.4): 765.7 ± 84.4
LD50 (Acute toxicity (LD50)): > 5000 mg/kg

Cc1c(C)c2c(c(C)c1OC(=O)c1cccnc1)CCC(C)(COC(=O)c1cccnc1)O2 (centres unmarked) [Compound 5, 3,4-dihydro-2-nicotinoyloxymethyl-2,5,7,8-tetramethyl-2H-benzopyran-6-yl nicotinate]
Serum cholesterol value ([1]; Table 1, 452 mg/kg, normal 98.6 ± 10.8, hypercholesterolemic 172.2 ± 8.6): 127.9 ± 14.2 mg/dL
cholesterol lowering activity compared with Nicomol ([1]; relative to Nicomol): about two times higher cholesterol lowering activity than Nicomol
inhibition of increase of OCT activity induced by alcohol ([3]; in words): excellent inhibition of increase of OCT activity induced by alcohol in a similar degree to that of Compound 2
inhibition of increase of GOT activity induced by CCl4 ([4]; in words): excellent inhibition of increase of GOT and GPT activities induced by CCl4 in a similar degree to that of Compound 2
inhibition of increase of GPT activity induced by CCl4 ([5]; in words): excellent inhibition of increase of GOT and GPT activities induced by CCl4 in a similar degree to that of Compound 2

Cc1c(C)c2c(c(C)c1OC(=O)c1cccnc1)CCC(C)(CCO)O2 (centres unmarked) [Compound 3]
Serum cholesterol value ([1]; Table 4, 355 mg/kg, normal 111.3 ± 8.6, hypercholesterolemic 165.0 ± 13.4): 144.0 ± 10.5 mg/dL
